Laboratory results published in patent US5821084A, “Osteoblast-testicular protein tyrosine phosphatase” (The Regents of the University of Michigan, priority 1994, dated 1998).

Assays:
[1] = test system: UMR106 cells; conditions: cited from earlier work
[2] = test system: other two novel PTPase clones; assay: Northern blot of other novel PTPase clones in PTH-treated UMR106 cells; type: cell-based, rat; conditions: PTH treatment
Method: RNA was analyzed by Northern blot hybridization to determine the tissue specificity of the OST-PTP clone. Poly A^+ RNA was extracted from an array of adult rat tissues: uterus, ovary, testis, kidney, heart, liver, lung, spleen, brain, skeletal muscle, smooth muscle, pancreas and retina. Poly A^+ RNA derived from UMR106 was used as a standard to control for expression in bone. The RNA preparations were quantitated by absorbance at 260 nm and, depending on the message abundance, either total cellular RNA or poly A+ RNA was electrophoretically separated in a 6.6% formaldehyde-1%agarose gel. RNA fractionated in such gels was transferred to Magnagraph nylon membrane (MSI) in 20× SSC by capillary action method. Two different types of probe; riboprobe (RNA) or random primed cDNA probe, were used depending on the experiment. The riboprobe used for hybridization corresponded to the extracellular domain of OST-PTP, and was labeled by in vitro transcription using ^32 P-a (3000 Ci/mM) as described by manufacturers (Promega). […] All quantifications were normalized against the amount of cyclophilin message which was considered to be standard for any given conditions. […]

[3] = test system: OST-PTP mRNA; type: cell-based, rat
From the text: Poly A^+ RNA was extracted from an array of adult rat tissues: uterus, ovary, testis, kidney, heart, liver, lung, spleen, brain, skeletal muscle, smooth muscle, pancreas and retina. Poly A^+ RNA derived from UMR106 was used as a standard to control for expression in bone. […] RNA fractionated in such gels was transferred to Magnagraph nylon membrane (MSI) in 20× SSC by capillary action method. Two different types of probe; riboprobe (RNA) or random primed cDNA probe, were used depending on the experiment. […] All DNA probes were labeled with ^32 P-a (3000 Ci/mM) by the Random Primers DNA labeling kit using manufacturer's recommended conditions (GibcoBRL Life Technologies). […] For hybridizations, 10^6 cpms/ml probe was added. Following hybridization, the blots were washed twice at room temperature in 1× SSC+0.1% SDS (30 minutes per wash), and then washed twice in 0.1× SSC+0.1% SDS (30 minutes per wash) once at room temperature and once at 68° C. The prehybridization/hybridization conditions for the DNA probes were the same as described above except the temperature was lowered to 43° C. […] The washes were done as described above. The results were visualized either by autoradiography or by scanning with a phosphorimager (Molecular Dynamics). All quantifications were normalized against the amount of cyclophilin message which was considered to be standard for any given conditions.
Parathyroid hormone is an important bone hormone. […] The UMR106 cells were cultured as described above until confluence. The cells were then washed twice in phosphate buffered saline followed by incubation for 5 hours at 37° C. in serum free DMEM. After serum deprivation, 100 nM parathyroid hormone (PTH) was added to the cultures and incubation continued for 4, 8, 12, and 16 hours at 37° C. RNA was then isolated from the cells as described above.

## parathyroid hormone [PTH]
[1]
  effect on cell proliferation and DNA synthesis: inhibit cell proliferation, and DNA synthesis
[2]
  effect of PTH on the other two novel PTPase clones: Neither of the other two novel PTPase clones were altered
[3]; UMR106 cells, 100 nM PTH, later than 4 hours (8, 12, 16 hours)
  change of OST-PTP message at later time points: further increases
[3]; UMR106 cells, 18 hours
  PTH concentration effective in increasing OST-PTP transcripts: 1 nM
[3]; UMR106 cells, regardless of concentration (10 pM-100 nM)
  effect on OST-PTP transcripts of exposure for less than 4 hours: no significant effect
[3]; umr106 cells, 4 h, 0.1 µM
  increase of PTP-OST (OST-PTP) message: ≤ 5 fold
